Measured values taken from the kinase profiling compilation of Christmann-Franck et al. (2016).

Columns and labels:
Test in all cases: KINOMEscan competition binding
ERBB4 (human) = ERBB4 (human) (UniProt Q15303)
MYLK3 (human) = MYLK3 (human) (UniProt Q32MK0)
MAP3K12 (human) = MAP3K12 (human) (UniProt Q12852)
Chain of MAP3K12 (human) (Q12852 whole entry, looked up): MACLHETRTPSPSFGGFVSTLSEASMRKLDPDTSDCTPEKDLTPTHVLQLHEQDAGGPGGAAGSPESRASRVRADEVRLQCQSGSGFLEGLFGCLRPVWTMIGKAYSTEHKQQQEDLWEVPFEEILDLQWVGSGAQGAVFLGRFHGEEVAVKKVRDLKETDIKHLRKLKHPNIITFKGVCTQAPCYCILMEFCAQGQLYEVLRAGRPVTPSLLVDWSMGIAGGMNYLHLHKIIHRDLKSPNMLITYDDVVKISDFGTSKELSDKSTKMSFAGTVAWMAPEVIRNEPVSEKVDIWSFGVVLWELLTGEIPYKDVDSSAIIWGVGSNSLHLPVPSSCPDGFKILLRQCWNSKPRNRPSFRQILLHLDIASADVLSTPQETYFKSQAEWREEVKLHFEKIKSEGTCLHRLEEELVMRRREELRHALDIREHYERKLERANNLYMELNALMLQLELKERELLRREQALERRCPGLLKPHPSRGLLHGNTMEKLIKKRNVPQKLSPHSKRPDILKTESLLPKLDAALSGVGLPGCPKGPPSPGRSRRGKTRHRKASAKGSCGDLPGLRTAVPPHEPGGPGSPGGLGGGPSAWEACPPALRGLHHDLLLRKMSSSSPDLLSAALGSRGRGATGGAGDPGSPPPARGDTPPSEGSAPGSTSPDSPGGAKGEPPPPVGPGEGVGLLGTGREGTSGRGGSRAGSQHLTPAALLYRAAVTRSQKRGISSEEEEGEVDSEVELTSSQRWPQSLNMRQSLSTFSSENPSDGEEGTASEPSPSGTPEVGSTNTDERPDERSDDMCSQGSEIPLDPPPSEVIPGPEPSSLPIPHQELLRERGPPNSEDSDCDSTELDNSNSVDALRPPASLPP

Chain of MYLK3 (human) (Q32MK0 whole entry, looked up): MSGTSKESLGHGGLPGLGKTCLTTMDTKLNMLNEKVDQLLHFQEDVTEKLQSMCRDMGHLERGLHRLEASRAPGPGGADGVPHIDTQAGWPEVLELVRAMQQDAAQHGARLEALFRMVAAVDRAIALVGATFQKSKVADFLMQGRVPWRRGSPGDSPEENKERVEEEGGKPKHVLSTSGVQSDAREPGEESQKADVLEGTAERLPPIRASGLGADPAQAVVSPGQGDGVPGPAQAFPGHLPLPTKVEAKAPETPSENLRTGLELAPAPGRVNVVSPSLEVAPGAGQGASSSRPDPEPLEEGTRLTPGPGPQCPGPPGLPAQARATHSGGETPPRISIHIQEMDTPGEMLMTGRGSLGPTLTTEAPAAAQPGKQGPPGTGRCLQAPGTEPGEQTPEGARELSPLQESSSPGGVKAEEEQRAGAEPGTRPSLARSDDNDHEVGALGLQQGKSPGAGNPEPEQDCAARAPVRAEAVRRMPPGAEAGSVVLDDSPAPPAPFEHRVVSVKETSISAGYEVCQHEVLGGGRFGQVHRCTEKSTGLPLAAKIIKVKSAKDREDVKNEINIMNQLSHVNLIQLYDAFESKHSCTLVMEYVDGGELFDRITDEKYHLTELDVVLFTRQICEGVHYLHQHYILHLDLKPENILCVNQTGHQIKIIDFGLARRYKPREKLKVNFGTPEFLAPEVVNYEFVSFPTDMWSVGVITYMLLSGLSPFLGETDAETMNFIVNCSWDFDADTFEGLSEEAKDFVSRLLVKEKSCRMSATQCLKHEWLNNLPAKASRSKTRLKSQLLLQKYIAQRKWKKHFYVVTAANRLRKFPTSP
Chain of ERBB4 (human) (Q15303 whole entry, looked up): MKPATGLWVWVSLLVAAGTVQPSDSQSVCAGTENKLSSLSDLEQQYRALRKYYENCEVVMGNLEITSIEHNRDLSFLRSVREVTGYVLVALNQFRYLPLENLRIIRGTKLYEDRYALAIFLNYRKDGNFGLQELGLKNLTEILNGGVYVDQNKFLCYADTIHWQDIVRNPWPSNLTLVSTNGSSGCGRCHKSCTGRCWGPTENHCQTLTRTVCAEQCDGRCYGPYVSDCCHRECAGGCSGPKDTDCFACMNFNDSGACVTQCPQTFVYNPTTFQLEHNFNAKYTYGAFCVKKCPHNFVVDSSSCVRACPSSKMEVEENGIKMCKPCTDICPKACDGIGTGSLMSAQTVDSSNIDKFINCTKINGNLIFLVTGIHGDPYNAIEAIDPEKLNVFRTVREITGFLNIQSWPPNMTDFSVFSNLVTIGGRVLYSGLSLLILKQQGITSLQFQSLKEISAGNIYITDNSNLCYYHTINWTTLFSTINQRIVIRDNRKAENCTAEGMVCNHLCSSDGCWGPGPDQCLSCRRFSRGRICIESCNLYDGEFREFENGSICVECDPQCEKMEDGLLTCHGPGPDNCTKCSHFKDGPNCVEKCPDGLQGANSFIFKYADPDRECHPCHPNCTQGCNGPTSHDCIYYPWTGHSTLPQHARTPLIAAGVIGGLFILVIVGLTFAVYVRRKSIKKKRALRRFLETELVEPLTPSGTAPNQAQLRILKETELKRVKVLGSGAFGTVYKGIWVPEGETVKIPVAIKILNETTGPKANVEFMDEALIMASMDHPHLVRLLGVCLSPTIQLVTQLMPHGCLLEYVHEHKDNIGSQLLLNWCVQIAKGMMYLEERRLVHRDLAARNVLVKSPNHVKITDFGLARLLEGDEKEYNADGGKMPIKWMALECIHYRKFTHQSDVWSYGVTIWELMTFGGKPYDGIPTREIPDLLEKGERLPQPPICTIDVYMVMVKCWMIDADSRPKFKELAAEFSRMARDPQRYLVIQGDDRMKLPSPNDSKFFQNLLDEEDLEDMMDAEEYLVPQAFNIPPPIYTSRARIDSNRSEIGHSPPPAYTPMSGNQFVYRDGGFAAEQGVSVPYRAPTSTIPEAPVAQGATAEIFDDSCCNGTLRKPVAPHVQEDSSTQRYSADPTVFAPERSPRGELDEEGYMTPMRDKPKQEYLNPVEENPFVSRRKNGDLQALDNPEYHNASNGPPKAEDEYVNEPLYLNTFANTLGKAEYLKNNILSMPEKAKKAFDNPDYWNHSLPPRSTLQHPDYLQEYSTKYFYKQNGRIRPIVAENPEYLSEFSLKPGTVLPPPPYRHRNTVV

Compound `Nc1nc(Nc2ccc(S(N)(=O)=O)cc2)nn1C(=O)c1c(F)cccc1F` has a Kd (ERBB4 (human)) greater than 10 µM and a Kd (MYLK3 (human)) greater than 10 µM.
With `CCOc1cc2ncc(C#N)c(Nc3ccc(F)c(Cl)c3)c2cc1NC(=O)/C=C/CN(C)C` the Kd (MYLK3 (human)) was greater than 10 µM.
With `NC(=O)c1ccc(-c2nc(-c3ccccn3)c(-c3ccc4c(c3)OCO4)[nH]2)cc1` the Kd (MAP3K12 (human)) was greater than 10 µM, the Kd (ERBB4 (human)) was greater than 10 µM and the Kd (MYLK3 (human)) was greater than 10 µM.
`Oc1ccc(-c2nc(-c3ccc(F)cc3)c(-c3ccncc3)[nH]2)cc1` was tested, and the Kd (MAP3K12 (human)) was greater than 10 µM, the Kd (ERBB4 (human)) was greater than 10 µM and the Kd (MYLK3 (human)) was greater than 10 µM.
Compound `COCC(=O)NC/C=C/c1ccc2ncnc(Nc3ccc(Oc4ccc(C)nc4)c(C)c3)c2c1` has a Kd (MAP3K12 (human)) greater than 10 µM and a Kd (MYLK3 (human)) greater than 10 µM.
